Experimental data published in patent US20230278987A1, “Antimicrobial Compounds and Methods” (Curza Global, LLC, priority 2019, published 2023).
In brackets after ≈: the same amount, converted by molar mass. Where a name gives a salt, the structure may show the parent alone. Read-outs that look alike come from different tables or passages of the source.

Key:
[1] = system: S.aureus (Sa); assay: Broth microdilution MIC against S.aureus (Sa); format: cell-based; settings: Staphylococcus aureus, read-out: Sa + bicarb 25 (MIC)
Experimental: (§1) A certified BSL-2 laboratory was used for testing. Compounds were evaluated using the broth microdilution minimum inhibitory concentration (MIC) and minimum bactericidal concentration (MBC) assays defined by Clinical and Laboratory Standards Institute (CLSI) in the M26-A guideline against S.aureus (Sa), E.coli (Ec), K.pneumoniae (Kp), A.baumannii (Ab), E.faecalis (Ef) and P.aeruginosa (Pa).
(§2) MICs were determined using the Clinical Laboratory and Standards Institute (CLSI) Broth Microdilution Method with slight modification. Clinical and Laboratory Standards Institute (2012). “Methods for dilution antimicrobial susceptibility tests for bacteria that grow aerobically; approved standard, 9th ed. M07-A9. Clinical and Laboratory Standards Institute, Wayne, PA.” Serial two-fold dilutions of compounds are prepared in sterile clear roundbottom 96-well plates.
(§3) To prepare microdilution trays, two-fold dilutions of antimicrobial agent are prepared in growth medium: Cation-Adjusted Mueller-Hinton Broth (CAMHB), or CAMHB supplemented with sodium bicarbonate (6.25 or 25 mM final concentration prepared from a 1.0 M stock solution) or CAMHB supplemented with heat inactivated human serum (Fisher Cat. # BP2657100) 0-50% by adding 200 µL of the highest concentration to be tested (64 µg/mL, for example) in row A, mixing and transferring 100 µL from row A to 100 µL growth medium in row B, then repeating the mixing and transferring through row H of the 96-well plate, discarding the excess 100 µL remaining. This slight modification to the CLSI protocol enables evaluation of MICs for 3 compounds per plate in triplicate, albeit with only 8 compound dilutions (CLSI protocol enables 2 compounds in triplicate with 10 dilutions). Bacterial suspensions are added to a final concentration of 5 × 10^4 CFU/well by adding 5 µL of a 1:10 dilution of a 0.5 McFarland suspension (1 × 10^8 CFU/mL) for each bacterium evaluated. Bacterial suspensions were prepared using the growth method described by CLSI. Well-isolated colonies (3-5 from an agar plate) were selected using a sterile loop and used to inoculate a tube containing 4 mL of CAMHB. The cultures are incubated at 35 ± 2° C. until it achieves or exceeds the turbidity of the 0.5 McFarland standard, determined by measuring A600nm (usually two to six hours). When growth exceeds a 0.5 McFarland standard, the turbidity is adjusted with broth to be equivalent to a 0.5 McFarland standard.

[2] = system: P.aeruginosa (Pa); assay: Broth microdilution MIC against P.aeruginosa (Pa); format: cell-based; settings: CAMHB supplemented with sodium bicarbonate 25 mM; for MIC: Pseudomonas aeruginosa, read-out: Pa +bicarb 25 (MIC)
Experimental: as §1, §2, §3

[3] = target: Rabbit Reticulocyte Lysate (eukaryotic protein synthesis); assay: Rabbit Reticulocyte Lysate: inhibition of eukaryotic protein synthesis (luciferase); format: biochemical; settings: 30° C. for 90 minutes, read-out: retic. IC50
Experimental: Inhibition of eukaryotic protein synthesis was determined using the Rabbit Reticulocyte Lysate System, Nuclease-Treated from Promega (catalog #L-4960) with slight modifications to the manufacturer’s protocol. Compounds were serial diluted in 0.5 mL microcentrifuge tubes by mixing and transferring 50 µL from the highest concentration to 50 µL of water, mixing and transferring 50 µL of this 2-fold dilution to 50 µL of water. This mixing and transferring was repeated so that there are a total of 8 tubes with serial dilutions of compound at 10× the desired screening concentration that are ultimately diluted to 1× by the addition of rabbit reticulocyte luciferase synthesis mixture. Serial dilutions of compounds were added (2.5 µL) to wells in a black round bottom 96-well plate. Water (2.5 µL) was used as a “no inhibitor” control in 4 wells/plate. No RNA control reaction mixture (2 µL; see below) was used as a control in 4 wells/plate for background luminescence. Rabbit reticulocyte luciferase synthesis mixture (22.5 µL; see below) was added to wells with compounds or water mixture and incubated at 30° C. for 90 minutes. Luciferase assay reagent (25 µL) was added with luminescence measured using a BioTek Synergy HTX plate reader. % Inhibition was determined relative to no inhibitor controls.
Rabbit reticulocyte luciferase synthesis mixture: • 1,000 µL rabbit reticulocyte lysate • 5.7 µL Luciferase Control RNA (1 µg/ µL) • 26 µL complete amino acid mixture • 395 µL water
No RNA Control • 70 µL rabbit reticulocyte lysate • 2 µL complete amino acid mixture • 28 µL water

[4] = system: E.coli S30 extract (bacterial protein synthesis); assay: E.coli S30 extract: inhibition of bacterial protein synthesis (luciferase); format: biochemical; settings: 37° C. for 1 hour
Experimental: E.coli S30 extract: Inhibition of bacterial protein synthesis was determined using the E.coli S30 Extract System for Circular DNA (Promega catalog #L-2010) and Luciferase Assay Reagent (Promega catalog #E1500) with slight modifications to a published protocol. Fyfe, C., Sutcliffe, J.A. and Grossman, T.H. (2012) “Development and characterization of a Pseudomonas aeruginosa in vitro coupled transcription-translation assay system for evaluation of translation inhibitors” J. Microbiol. Methods 90(3), 256-261.
Compounds were serial diluted in 0.5 mL microcentrifuge tubes by mixing and transferring 50 µL from the highest concentration to 50 µL of water, mixing and transferring 50 µL of this 2-fold dilution to 50 µL of water. This mixing and transferring was repeated so that there are a total of 8 tubes with serial dilutions of compound at 10× the desired screening concentration that are ultimately diluted to 1× by the addition of S30 luciferase synthesis mixture. Serial dilutions of compounds were added (2 µL) to wells in a black round bottom 96-well plate. Water (2 µL) was used as a “no inhibitor” control in 4 wells/plate. No DNA control reaction mixture (20 µL; see below) was used as a control in 4 wells/plate for background luminescence. S30 luciferase synthesis mixture (18 µL; see below) was added to wells with compounds or water mixture and incubated at 37° C. for 1 hour. Reactions were stopped by transferring to 4° C. refrigerator for 5 minutes then 25 µL of luciferase activity mix was added. Luminescence was measured using a BioTek Synergy HTX plate reader. % Inhibition was determined relative to no inhibitor controls.
S30 luciferase synthesis mixture: • 445 µL S30 extract, circular • 712 µL S30 Premix without amino acids • 4.45 µL pBESTluc™ DNA (1 µg/ µL) • 78 µL complete amino acid mixture • 267 µL water
No DNA control: • 20 µL S30 extract, circular • 32 µL S30 Premix without amino acids • 7 µL complete amino acid mixture • 21 µL water

[5] = system: E.faecalis (Ef); assay: Broth microdilution MIC against E.faecalis (Ef); format: cell-based; settings: Enterococcus faecalis, read-out: Ef +bicarb 25 (MIC)
Experimental: as §1, §2, §3

[6] = system: A.baumannii (Ab); assay: Broth microdilution MIC against A.baumannii (Ab); format: cell-based; settings: CAMHB supplemented with sodium bicarbonate 25 mM; for MIC: Acinetobacter baumannii, read-out: Ab +bicarb 25 (MIC)
Experimental: as §1, §2, §3

[7] = system: E.coli (Ec); assay: Broth microdilution MIC against E.coli (Ec); format: cell-based; settings: for MIC: Escherichia coli
Experimental: as §1, §2, §3

[8] = CAMHB supplemented with sodium bicarbonate 25 mM
[9] = CAMHB supplemented with sodium bicarbonate 25 mM, read-out: E.coli + bicarb 25 (MIC)

| SMILES | MIC [1, 8] [µg/mL] | MIC [2] [µg/mL] | IC50 [3] [µM] | IC50 [4] [µM] | MIC [5, 8] [µg/mL] | MIC [6] [µg/mL] | MIC [7, 9] [µg/mL] | MIC [1] [µg/mL] | Pa +bicarb 25 (MIC) [2] | MIC [5] [µg/mL] | Ab +bicarb 25 (MIC) [6] | E.coli + bicarb 25 (MIC) [7, 8] | MIC ([7]; read-out: E. coli + bicarb 6.25 (MIC)) [µg/mL] |
| --- | --- | --- | --- | --- | --- | --- | --- | --- | --- | --- | --- | --- | --- |
| CC(C)(N)C(=O)N1CCN(C(=O)Nc2ccn(-c3ccc4c(c3)CCC(N[C@H]3CC[C@H](N)C3)C4)c(=O)n2)CC1 (stereo in doubt) [Compound 10] | < 8 | > 32 | ≥ 1 | < 0.5 | < 8 | > 32 | < 8 | – | – | – | – | – | – |
| CC(C)(N)C(=O)N1CCN(C(=O)Nc2ccn(-c3ccc4c(c3)CCC(N[C@H]3CC[C@@H](N)CC3)C4)c(=O)n2)CC1 (some centres unmarked) [Compound 6] | < 8 | > 32 | ≥ 1 | < 0.5 | < 8 | > 32 | < 8 | – | – | – | – | – | – |
| CC(C)(N)C(=O)N1CCN(C(=O)Nc2ccn(-c3ccc4c(c3)CCC(N[C@H]3CC[C@H](N)CC3)C4)c(=O)n2)CC1 (some centres unmarked) [Compound 7] | < 8 | > 32 | ≥ 1 | < 0.5 | < 8 | > 32 | < 8 | – | – | – | – | – | – |
| CC(C)(N)C(=O)N1CCN(C(=O)Nc2ccn(-c3ccc4c(c3)CCC(NC3CC5(CC(N)C5)C3)C4)c(=O)n2)CC1 (centres unmarked) [Compound 8] | < 8 | 8 to 32 (≈ 14.2 to 56.9 µM) | ≥ 1 | < 0.5 | < 8 | 8 to 32 (≈ 14.2 to 56.9 µM) | < 8 | – | – | – | – | – | – |
| CC(C)(N)C(=O)N1CCN(C(=O)Nc2ccn(-c3ccc4c(c3)CCC(N[C@H]3CC[C@H](N)C3)C4)c(=O)n2)CC1 (stereo partly drawn) [Compound 9, 4-(2-amino-2-methylpropanoyl)-N-(1-(6-(((1S,3S)-3-aminocyclopentyl)amino)-5,6,7,8-tetrahydronaphthalen-2-yl)-2-oxo-1,2-dihydropyrimidin-4-yl)piperazine-1-carboxamide hydrochloride salt] | – | – | ≥ 1 | < 0.5 | – | – | – | < 8 | + (An MIC value (µg/mL) that is 32 µg/mL or greater) | < 8 | + (An MIC value (µg/mL) that is 32 µg/mL or greater) | +++ (An MIC value (µg/mL) that is less than 8 µg/mL) | < 8 |
| CN(C1CCc2cc(-n3ccc(NC(=O)N4CCN(C(=O)C(C)(C)N)CC4)nc3=O)ccc2C1)C1CC2(CC(N)C2)C1 (centres unmarked) [Compound 11] | < 8 | > 32 | ≥ 1 | 0.5 to 1 | < 8 | > 32 | < 8 | – | – | – | – | – | – |
| CC(C)(N)C(=O)N1CCN(C(=O)Nc2ccn(-c3ccc4c(c3)OCC(N3C[C@@H]5[C@@H](CN)[C@@H]5C3)C4)c(=O)n2)CC1 (stereo partly drawn) [Compound 12, exo-4-(2-amino-2-methylpropanoyl)-N-(1-(3-(-6-(aminomethyl)-3-azabicyclo[3.1.0]hexan-3-yl)chroman-7-yl)-2-oxo-1,2-dihydropyrimidin-4-yl)piperazine-1-carboxamide hydrochloride salt] | 8 to 32 | > 32 | ≥ 1 | ≥ 1 | > 32 | > 32 | < 8 | – | – | – | – | – | – |
| CC(C)(N)C(=O)N1CCN(C(=O)Nc2ccn(-c3ccc4c(c3)OCC(N3C[C@@H]5[C@@H](N)[C@@H]5C3)C4)c(=O)n2)CC1 (some centres unmarked) [Compound 13, Hydrochloride Salt] | 8 to 32 | 8 to 32 | ≥ 1 | ≥ 1 | 8 to 32 | 8 to 32 | 8 to 32 | – | – | – | – | – | – |
| CC(C)(N)C(=O)N1CCN(C(=O)Nc2ccn(-c3ccc4c(c3)OCC(N3CC[C@@H](CN)C3)C4)c(=O)n2)CC1 (some centres unmarked) [Compound 14] | < 8 | 8 to 32 (≈ 14.9 to 59.4 µM) | ≥ 1 | ≥ 1 | 8 to 32 (≈ 14.9 to 59.4 µM) | 8 to 32 (≈ 14.9 to 59.4 µM) | < 8 | – | – | – | – | – | – |
| CN(C1CCc2cc(-n3ccc(NC(=O)N4CCN(C(=O)C(C)(C)N)CC4)nc3=O)ccc2C1)[C@H]1CC[C@H](N)CC1 (some centres unmarked) [Compound 15, 4-(2-amino-2-methylpropanoyl)-N-(1-(6-(((1r,4r)-4-aminocyclohexyl)(methyl)amino)-5,6,7,8-tetrahydronaphthalen-2-yl)-2-oxo-1,2-dihydropyrimidin-4-yl)piperazine-1-carboxamide hydrochloride salt] | < 8 | 8 to 32 | ≥ 1 | < 0.5 | < 8 | 8 to 32 | < 8 | – | – | – | – | – | – |
